Results on 4 molecules are retold here after paper PMC4912613, “A broad analysis of resistance development in the malaria parasite” (Nature Communications, 2016).

In data set [1] the test system is PfATP4-Mut3 (PfATP4 F917L, parent 3D7). Format: cell-based, Plasmodium falciparum. An excerpt:
(§1) To evaluate potential overlapping activity against known antimalarial drug targets, we performed dose-response studies with each compound against our assembled set of drug-resistant lines and their corresponding parents, in an asexual blood stage proliferation assay (Table 1). Comparisons were made to the drug-sensitive strain 3D7 when a parent was unavailable (TM90C2A, W2 and Dd2). As laboratories conducted EC50 assays with different strains and protocols, all comparisons were made between assays from the same laboratory and under the same assay conditions. Compounds displaying >5-fold EC50 shifts relative to the parent or sensitive strain were flagged as having potentially non-novel targets. Average fold shifts per strain ranged from 0.82 to 2.34, with a median of 1.23 indicating there was not common resistance to any one resistant clone. […]
(§2) The 48-h assay was carried out in a 96-well format following standard methods using the ^3H-hypoxanthine incorporation assay. […] Radioactivity was measured using a microbeta counter. […] All assays were conducted in triplicate using three independently grown cultures, and EC50 values were determined using the XLfit add-in module for Excel (version 2.3.1) from Grafit (version 5.3.1.3), where parameter h is the assay hill slope, x is the compound concentration and y is the inhibition of growth effect. […]

A short description of data set [2]: Hepatocyte toxicity. Format: cell-based, human. Conditions: human; read-out: HepG2 EC50 (hepatocyte toxicity). In short, it runs like this:
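Duplicate 12-point dose curves, starting at 5 μM or 50 μM, gave EC50s for both parasite and host toxicity. Compound was added to human HepG2 hepatocytes 2 h before infection with freshly dissected P. berghei sporozoites. Surviving liver-stage forms were quantified by luminescence after 48 h.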

The subject of data set [3] is resistant parasites generated by MMV007564. Description: Cross-resistance to parasites selected with MMV007564. Format: cell-based, Plasmodium falciparum. An excerpt: While we found an overall lack of pre-existing resistance, analysing the onset of resistance was critical, as compounds resulting in rapid resistance are not ideal for clinical development. We therefore sought to create drug-resistant parasites using a variety of different selection methods. We implemented either a high-dose method or a ramp-up/pulse method for our in vitro selections. Two of the 50 compounds—MMV028895 and MMV665824—were removed from the selection study during experimentation. […] Out of the remaining 48 compounds, resistant parasites were obtained for 23 (Supplementary Data 1). As each selection was performed in triplicate with three independent cultures, we succeeded in generating a total of 66 resistant cultures. Parasites resistant to MMV026596 were not obtained despite 100 days of selection, but the cultures acquired hypersensitivity to mefloquine with a 10-fold reduction in EC50 compared with its parental line, 3D7. For the remaining 24 compounds, acquisition of resistant parasites was unsuccessful despite numerous attempts over an extensive period of time.

In data set [4] the test system is PfATP4-Mut1 (PfATP4 V178I, parent W2). Kind of data set: Cross-resistance EC50 assay, PfATP4-Mut1. Format: cell-based, Plasmodium falciparum. The conditions noted are these: loss of efficacy.
Text: as §1, §2

In general, EC50 refers to the concentration needed to bring the measured effect to its halfway point.

Consider `CCN(CC)S(=O)(=O)c1ccc(-c2csc(Nc3ccc(C)c(C)c3)n2)cc1` [MMV009108], for which the “EC50 fold-shift, ATP4-Mut3 vs parent” value in data set [1] is on record as 5.2 ×. Turning to `CN(C)S(=O)(=O)c1cc(-c2ccc3nccc(-c4cccc(S(N)(=O)=O)c4)c3c2)cnc1N` [MMV024038], in data set [2], the EC50 came to 146 nM. For the molecule `CN(C)CCCN(C)C(=O)C1Cc2cc(-c3ccccc3)ccc2N1S(=O)(=O)c1ccccc1` (stereo not shown) [MMV028895], in data set [3], the “cross-resistance to resistant parasites generated by MMV007564” value is reported as “exhibited cross-resistance”. As for `O=C(Nc1ccsc1C(=O)NC1CCCCC1)c1ccc(F)cc1` [MMV665939], the “EC50 fold-shift, PfATP4-Mut1 compared with 3D7” value in data set [4] is 16.6 ×.
